As a reminder, the IC50 is the concentration needed to halve the response being measured. For orientation: bioavailability means the share of a dose that reaches the circulation, judged against a reference dose that is usually intravenous.

For one data set, the target named is T1, CYP2C19 (Homo sapiens, UniProt P33261).
T1 construct: enzyme, pooled human hepatic microsome 0.2 mg protein/mL; from tissue; host or cells: pooled human liver microsomes
The experiment in a line: Test Example 6: CYP inhibition test, mephenytoin 4′-hydroxylation (CYP2C19). Conditions: pooled human hepatic microsome, 50 μmol/L S-mephenytoin. Type of data set: in vitro ADME. The protocol:
Test Example 6 CYP Inhibition Test […] The reaction conditions were as follows: substrate, 0.5 μmol/L ethoxyresorufin (CYP1A2), 100 μmol/L tolbutamide (CYP2C9), 50 μmol/L S-mephenytoin (CYP2C19), 5 μmol/L dextromethorphan (CYP2D6), 1 μmol/L terfenedine (CYP3A4); reaction time, 15 minutes; reaction temperature, 37° C.; enzyme, pooled human hepatic microsome 0.2 mg protein/mL; concentration of the compound of the present invention, 1, 5, 10, 20 μmol/L (four points). Each five kinds of substrates, human hepatic microsome, and the compound of the present invention in 50 mmol/L Hepes buffer as a reaction solution were added to a 96-well plate at the composition as described above. NADPH, as a cofactor was added to initiate metabolism reactions as markers and, after the incubation at 37° C. for 15 minutes, a methanol/acetonitrile=1/1 (v/v) solution was added to stop the reaction. After the centrifugation at 3000 rpm for 15 minutes, resorufin (CYP1A2 metabolite) in the supernatant was quantified by a fluorescent multilabel counter and toltributamide hydroxide (CYP2[…] metabolite), mephenytoin 4' hydroxide (CYP2C19 metabolite), […], and terfenadine alcohol (CYP3A4 metabolite) were quantified by LC/MS/MS. Addition of only DMSO being a solvent dissolving the compound of the present invention to a reaction system was adopted as a control (100%). Remaining activity (%) was calculated at each concentration of the compound of the present invention added as the solution and IC50 was calculated by reverse presumption by a logistic model using a concentration and an inhibition rate.

A short description of data set [1]: Test Example 11: BA test (oral absorbability). Type of data set: in vivo. Conditions: plasma; Mouse, oral administration 1 mg/kg. The method, then:
Materials and methods for experiments to evaluate oral absorbability
(1) Experimental animals: rats or mice were used. (2) Breeding condition: rats or mice were allowed free access to solid feed and sterilized tap water (3) Setting of dosage and grouping: Oral administration and intravenous administration were performed with the predetermined dosage. Grouping was set as below. (Dosage varied depending on each compound)
Oral administration 1 to 30 mg/kg (n=2 to 3)
Intravenous administration 0.5 to 10 mg/kg (n=2 to 3)
(4) Preparation of administered liquid: Oral administration was performed using a solution or a suspension. Intravenous administration was performed after solubilization. (5) Method of Administration: In oral administration, compulsory administration to the stomach was conducted using an oral sonde. […] (6) Evaluation items: Blood was chronologically collected, and then concentration of a compound of the present invention in blood plasma was measured using a LC/MS/MS. […]
(7) Statistical analysis: With regard to a shift in plasma concentration of the compound of the present invention, the area under the plasma concentration-time curve (AUC) was calculated using a nonlinear least-squares program, WinNonlin (a registered trademark). Bioavailability (BA) was calculated from the AUCs of the oral administration group and the intravenous administration group. […]

Data set [2] relates to Salmonella typhimurium TA98 strain, TA100 strain. The experiment in a line: Test Example 7: FAT test (mutagenicity). The arrangement: key: (−) means that mutagenicity is negative; (+) is positive. Conditions: TA98 and TA100 strains, non-metabolism activating and metabolism activating conditions. The protocol: Mutagenicity of a compound of the present invention was evaluated.
[…] of freezing-stored rat typhoid bacillus (Salmonella typhimurium TA98 strain, TA100 strain) was inoculated on 10 mL of a liquid nutrient medium (2.5% Oxoid nutrient broth No. 2), and this was cultured before shaking at 37° C. for 10 hours. 9 mL of a bacterial solution of the TA98 strain was centrifuged (2000×g, 10 minutes) to remove a culturing solution. The bacteria was suspended in 9 mL of a Micro F buffer (K2HPO4: 3.5 g/L, KH2PO4: 1 g/L, (NH4)2SO4: 1 g/L, trisodium citrate dehydrate: 0.25 g/L, MgSO4*7H2O: 0.1 g/L), the suspension was added to 110 mL of an Exposure medium (Micro F buffer containing Biotin: 8 μg/mL, histidine: 0.2 μg/mL, glucose: 8 mg/mL). The TA100 strain was added to 120 mL of the Exposure medium relative to 3.16 mL of the bacterial solution to prepare a test bacterial solution. […] Since a well containing a bacterium which has obtained the proliferation ability by mutation of an amino acid (histidine) synthesizing enzyme gene turns from purple to yellow due to a pH change, the bacterium proliferation well which has turned to yellow in 48 wells per dose was counted, and was assessed by comparing with a negative control group. […]

T1 sequence (P33261 whole entry): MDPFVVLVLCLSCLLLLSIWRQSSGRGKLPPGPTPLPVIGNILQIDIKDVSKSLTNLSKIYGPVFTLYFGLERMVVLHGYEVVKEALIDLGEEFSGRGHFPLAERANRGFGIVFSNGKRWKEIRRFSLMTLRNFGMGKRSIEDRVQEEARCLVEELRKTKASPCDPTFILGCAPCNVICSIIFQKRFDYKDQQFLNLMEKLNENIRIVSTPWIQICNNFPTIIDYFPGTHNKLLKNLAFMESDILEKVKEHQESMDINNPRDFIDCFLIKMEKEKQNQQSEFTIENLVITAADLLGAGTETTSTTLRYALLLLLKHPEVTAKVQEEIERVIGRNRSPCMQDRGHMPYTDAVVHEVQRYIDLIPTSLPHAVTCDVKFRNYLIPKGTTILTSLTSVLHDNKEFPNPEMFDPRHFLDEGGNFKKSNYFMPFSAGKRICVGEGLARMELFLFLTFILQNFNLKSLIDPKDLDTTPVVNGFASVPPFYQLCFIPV

At CYP2C19, `Cc1nc(C)c(-c2csc(NC(=O)Cc3ccc(S(C)(=O)=O)cc3)n2)s1` [Compound I-17] displayed an IC50 above 20 µM. Besides, the bioavailability in data set [1] turned out to be 54.6%. In the case of `Cc1nc(C)c(-c2csc(NC(=O)C3CCC(F)(F)C3)n2)s1` (stereo not drawn) [Compound I-18], in data set [2], the “Mutagenicity (FAT test)” value is recorded as “(−)”.

For the origin of these results see patent publication US20170066759A1, “AROMATIC 5-MEMBERED HETEROCYCLIC DERIVATIVE HAVING TRPV4-INHIBITING ACTIVITY” (Shionogi & Co., Ltd., priority 2012, published 2017).
